Where a name gives a salt, the structure may show the parent alone. Read-outs that look alike come from different tables or passages of the source.

One assay relates to MDBK line. Put plainly: MTT Cell Proliferation Assay, MDBK cells. The format is cell-based, bovine. Conditions: MDBK cells, second value of cell, read-out: MTT Assay IC50(A431/MDBK): MDBK. Put shortly:
(§1)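 Each concentration ran in quadruplicate across duplicate plates, with compounds serially diluted in DMSO and delivered at 0.5% DMSO in 0.5% FBS medium for 3 days.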

Another assay addresses T1, EGFR (Homo sapiens, UniProt P00533).
T1 construct: host or cells: A431
Kind of assay: EGFR in-cell Western (ICW) screening protocol (EGFR inhibition assay). The format is cell-based. On the set-up: ICW 1 / ICW 2 / ICW Avg: unit not given here. Conditions: ICW assay; for ICW Avg: average of runs 1 and 2; for ICW 1: run 1; for ICW 2: run 2. The essentials:
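In-cell Western read-out: fixed A431 cells were co-stained for total EGFR and phospho-EGFR (Tyr1173; some runs Tyr1045). Before fixation, cells were serum-starved for 2 h, exposed to compound for 4 h, then given EGF for 10 min, usually at 10 ng/ml final (6.6 or 12.5 ng/ml in some runs).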

Assay [1] has as its system epithelial carcinoma A431 cell line. Kind of assay: MTT Cell Proliferation Assay, A431 cells. Conditions: for IC50: first value of cell, read-out: MTT Assay IC50(A431/MDBK): A431; for MTT Assay IC50(A431/MDBK): ratio in parentheses: ratio MDBK IC50 / A431 IC50 (selectivity). Type of assay: cell-based. Put shortly: as §1
The mark [2] stands for this setting: Homo sapiens, A-431, A431 cells.

T1 sequence (P00533 25-1210): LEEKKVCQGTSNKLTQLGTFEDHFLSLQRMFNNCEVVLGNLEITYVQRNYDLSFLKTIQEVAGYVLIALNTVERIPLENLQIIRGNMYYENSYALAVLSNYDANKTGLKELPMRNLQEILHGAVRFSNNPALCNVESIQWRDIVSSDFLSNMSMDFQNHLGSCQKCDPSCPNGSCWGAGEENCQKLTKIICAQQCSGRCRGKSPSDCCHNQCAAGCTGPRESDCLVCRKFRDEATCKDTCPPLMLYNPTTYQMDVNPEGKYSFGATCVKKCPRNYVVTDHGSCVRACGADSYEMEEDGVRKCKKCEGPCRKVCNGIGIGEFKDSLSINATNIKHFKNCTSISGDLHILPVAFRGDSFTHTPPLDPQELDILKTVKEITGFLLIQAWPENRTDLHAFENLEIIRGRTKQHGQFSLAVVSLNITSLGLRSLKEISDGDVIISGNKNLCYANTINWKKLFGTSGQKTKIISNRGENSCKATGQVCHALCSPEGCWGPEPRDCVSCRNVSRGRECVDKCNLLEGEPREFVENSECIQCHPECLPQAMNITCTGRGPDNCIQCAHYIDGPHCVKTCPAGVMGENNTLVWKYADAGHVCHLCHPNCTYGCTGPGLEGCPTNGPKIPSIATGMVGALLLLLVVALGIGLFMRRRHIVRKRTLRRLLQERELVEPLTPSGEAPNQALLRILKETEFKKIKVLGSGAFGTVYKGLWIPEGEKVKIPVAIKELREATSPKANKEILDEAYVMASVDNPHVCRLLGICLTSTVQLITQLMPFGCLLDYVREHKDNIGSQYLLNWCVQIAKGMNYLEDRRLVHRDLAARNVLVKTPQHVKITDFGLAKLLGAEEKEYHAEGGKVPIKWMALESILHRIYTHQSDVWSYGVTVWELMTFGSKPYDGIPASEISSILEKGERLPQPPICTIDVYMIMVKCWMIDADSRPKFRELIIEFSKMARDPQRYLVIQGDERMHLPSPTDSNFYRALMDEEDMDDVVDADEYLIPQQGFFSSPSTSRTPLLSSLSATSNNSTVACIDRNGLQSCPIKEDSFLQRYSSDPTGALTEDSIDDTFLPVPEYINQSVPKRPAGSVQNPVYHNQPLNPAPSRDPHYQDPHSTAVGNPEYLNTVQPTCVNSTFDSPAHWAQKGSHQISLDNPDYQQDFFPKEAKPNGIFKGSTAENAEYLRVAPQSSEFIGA

As to `Cc1nc(Nc2nc(C)c3cccc(C)c3n2)[nH]c(=O)c1Cc1ccccc1` [12611 + TFA], the IC50 with MDBK line (Bos taurus, MDBK) is 5.31 µM. Moreover, on EGFR, the “ICW Avg” value was 45.72, the “ICW 1” value is recorded as 52.69 and the “ICW 2” value was 38.76. For the same compound, the IC50 in assay [1] (setting [2]) came out at 5.32 µM. Also, in assay [1], the “MTT Assay IC50(A431/MDBK): ratio in parentheses” value (shortened to “MTT Assay IC50(A431/MDBK): ratio”) amounted to 1.00.
`CCCc1c(C)nc(Nc2nc(C)c3cc(C)cc(C)c3n2)[nH]c1=O` [12612 + TFA]: the IC50 in the assay on MDBK line came to 79.2 µM. Moreover, on EGFR, the “ICW Avg” value amounted to 57.36, the “ICW 1” value turned out to be 69.21 and the “ICW 2” value turned out to be 45.51. Besides, in assay [1] (A431 cells), the IC50 was 48.5 µM.
`CCCc1c(C)nc(Nc2nc(C)c3cc(C)c(C)cc3n2)[nH]c1=O` [12614 + TFA]: in the assay with MDBK line (Bos taurus, MDBK), the IC50 amounted to 7.56 µM. Besides, on EGFR, the “ICW Avg” value is 27.21, the “ICW 1” value was found to be 20.34 and the “ICW 2” value is given as 34.09. For the same compound, the IC50 in assay [1] (setting [2]) was 19.4 µM. Further, in assay [1], the “MTT Assay IC50(A431/MDBK): ratio” value came to 0.39.
As for `Cc1nc(Nc2nc(CSc3ccccn3)cc(=O)[nH]2)nc2ccccc12` [12623 + TFA], the IC50 in the assay with MDBK line (Bos taurus, MDBK) was 17 µM. Moreover, at EGFR, the “ICW Avg” value was 28.49, the “ICW 1” value was 21.11 and the “ICW 2” value stood at 35.88. Further, the IC50 in assay [1] (setting [2]) was found to be 37.2 µM. Besides, the “MTT Assay IC50(A431/MDBK): ratio” value in assay [1] is 0.46.
`CCCc1c(C)nc(Nc2nc(C)c3cccc(C)c3n2)[nH]c1=O` [12625 + TFA]: the IC50 in the assay on MDBK line (Bos taurus, MDBK) is 17 µM. For the same compound, on EGFR, the “ICW Avg” value was 34.27, the “ICW 1” value is on record as 30.45 and the “ICW 2” value stood at 38.10. Besides, the IC50 in assay [1] (setting [2]) amounted to 21.2 µM. Besides, the “MTT Assay IC50(A431/MDBK): ratio” value in assay [1] came out at 0.80.
As to `Cc1ccc2nc(Nc3nc(=O)c(C)c(C)[nH]3)nc(C)c2c1` [12629 + TFA], the IC50 with MDBK line (Bos taurus, MDBK) came to 10.7 µM. At EGFR, the “ICW Avg” value came to 25.89, the “ICW 1” value amounted to 19.83 and the “ICW 2” value stood at 31.95. The IC50 in assay [1] (setting [2]) is 12.7 µM. Moreover, the “MTT Assay IC50(A431/MDBK): ratio” value in assay [1] is 0.85.
Take `Cc1cc2nc(Nc3nc(=O)c(C)c(C)[nH]3)nc(C)c2cc1C` [12630 + TFA]: the IC50 in the assay with MDBK line (Bos taurus, MDBK) turned out to be 8.75 µM. Moreover, on EGFR, the “ICW Avg” value was 26.02, the “ICW 1” value worked out at 17.06 and the “ICW 2” value is listed as 34.97. In assay [1] (setting [2]), the IC50 was found to be 11.7 µM. For the same compound, the “MTT Assay IC50(A431/MDBK): ratio” value in assay [1] is on record as 0.75.
With `COCc1cc(=O)nc(Nc2nc(C)c3cc(C)cc(C)c3n2)[nH]1` [12644 + TFA], the IC50 in the assay on MDBK line came to 30.9 µM. Also, on EGFR, the “ICW Avg” value is 25.06, the “ICW 1” value amounted to 16.45 and the “ICW 2” value turned out to be 33.67. The IC50 in assay [1] (A431 cells) was 46.9 µM. The “MTT Assay IC50(A431/MDBK): ratio” value in assay [1] was 0.66.
As to `Cc1cc(C)c2nc(Nc3nc(=O)c(C)c(C)[nH]3)nc(C)c2c1` [12645 + TFA], in the assay on MDBK line (Bos taurus, MDBK), the IC50 worked out at 6.29 µM. In addition, on EGFR, the “ICW Avg” value amounted to 64.97, the “ICW 1” value was found to be 60.00 and the “ICW 2” value is listed as 69.95. Further, the IC50 in assay [1] (setting [2]) is 6.49 µM. The “MTT Assay IC50(A431/MDBK): ratio” value in assay [1] was found to be 0.97.
Consider `CCCc1cc(=O)[nH]c(Nc2nc(C)c3cc(C)c(C)cc3n2)n1` [12654 + TFA], for which the IC50 in the assay with MDBK line (Bos taurus, MDBK) is 12.6 µM. For the same compound, on EGFR, the “ICW Avg” value was determined as 36.07, the “ICW 1” value was found to be 37.92 and the “ICW 2” value is recorded as 34.22. Moreover, the IC50 in assay [1] (A431 cells) came to 16 µM. The “MTT Assay IC50(A431/MDBK): ratio” value in assay [1] is reported as 0.79.
Consider `CCCc1c[nH]c(Nc2nc(-c3ccccc3)c3cc(Cl)ccc3n2)nc1=O` [12660 + TFA], for which the IC50 in the assay with MDBK line (Bos taurus, MDBK) came to 41.1 µM. Further, on EGFR, the “ICW Avg” value is on record as 61.63, the “ICW 1” value is reported as 49.87 and the “ICW 2” value is 73.40. Further, in assay [1] (setting [2]), the IC50 came out at 41.5 µM. Also, the “MTT Assay IC50(A431/MDBK): ratio” value in assay [1] turned out to be 0.99.
Turning to `CCc1c(C)nc(Nc2nc(C)c3ccc(C)cc3n2)[nH]c1=O` [12665 + TFA], in the assay on MDBK line, the IC50 came to 17.2 µM. Besides, at EGFR, the “ICW Avg” value was found to be 44.17, the “ICW 1” value is 51.06 and the “ICW 2” value was determined as 37.29. The IC50 in assay [1] (A431 cells) is 17.5 µM. Also, in assay [1], the “MTT Assay IC50(A431/MDBK): ratio” value is listed as 0.98.
As for `Cc1ccc2nc(Nc3nc(C)c(CCC(C)C)c(=O)[nH]3)nc(C)c2c1` [12666 + TFA], the IC50 with MDBK line (Bos taurus, MDBK) amounted to 17.1 µM. Besides, on EGFR, the “ICW Avg” value is recorded as 36.77, the “ICW 1” value worked out at 48.16 and the “ICW 2” value came out at 25.37. Further, the IC50 in assay [1] (setting [2]) stood at 14.5 µM. The “MTT Assay IC50(A431/MDBK): ratio” value in assay [1] is listed as 1.18.
Turning to `CCCc1cc(=O)[nH]c(Nc2nc(C)c3ccc(OC)cc3n2)n1` [12669 + TFA], the IC50 in the assay with MDBK line (Bos taurus, MDBK) was 36.7 µM. In addition, on EGFR, the “ICW Avg” value turned out to be 25.42, the “ICW 1” value stood at 11.73 and the “ICW 2” value is on record as 39.10. Moreover, the IC50 in assay [1] (setting [2]) is 49.3 µM. Moreover, the “MTT Assay IC50(A431/MDBK): ratio” value in assay [1] was determined as 0.74.
As to `CCCc1cc(=O)[nH]c(Nc2nc(C)c3cc(C)c(C)cc3n2)n1` [12673 + TFA], the IC50 with MDBK line turned out to be 22.5 µM. Further, on EGFR, the “ICW Avg” value amounted to 52.80, the “ICW 1” value was found to be 44.70 and the “ICW 2” value is 60.90. For the same compound, the IC50 in assay [1] (A431 cells) came to 33.1 µM. In assay [1], the “MTT Assay IC50(A431/MDBK): ratio” value worked out at 0.68.
Consider `CCc1c(C)nc(Nc2nc(C)c3ccc(C)cc3n2)[nH]c1=O` [12683 + TFA], for which the IC50 in the assay with MDBK line turned out to be 45.3 µM. On EGFR, the “ICW Avg” value is reported as 40.88, the “ICW 1” value is 54.37 and the “ICW 2” value was found to be 27.38. Besides, the IC50 in assay [1] (A431 cells) came out at 63.4 µM. Also, the “MTT Assay IC50(A431/MDBK): ratio” value in assay [1] is reported as 0.71.
For the compound `CCOc1ccc2nc(Nc3nc(C)c(CCC(C)C)c(=O)[nH]3)nc(C)c2c1` [12684 + TFA], the IC50 with MDBK line (Bos taurus, MDBK) was 19.5 µM. On EGFR, the “ICW Avg” value is reported as 28.28, the “ICW 1” value stood at 40.81 and the “ICW 2” value was 15.75. Besides, in assay [1] (setting [2]), the IC50 was found to be 25.7 µM. Further, the “MTT Assay IC50(A431/MDBK): ratio” value in assay [1] worked out at 0.76.
As for `CCOc1ccc2nc(Nc3nc(C)cc(-c4ccccc4)n3)nc(C)c2c1` [12688 + TFA], in the assay with MDBK line (Bos taurus, MDBK), the IC50 stood at 3.58 µM. On EGFR, the “ICW Avg” value amounted to 36.40, the “ICW 1” value was 45.86 and the “ICW 2” value came out at 26.95. Also, the IC50 in assay [1] (setting [2]) was 5.04 µM. Further, the “MTT Assay IC50(A431/MDBK): ratio” value in assay [1] amounted to 0.71.
As for `Cc1ccc2nc(Nc3nc(C)cc(-c4ccccc4)n3)nc(C)c2c1` [12689 + TFA], in the assay with MDBK line (Bos taurus, MDBK), the IC50 was 43.6 µM. Moreover, at EGFR, the “ICW Avg” value is reported as 30.58, the “ICW 1” value turned out to be 44.07 and the “ICW 2” value came to 17.08. In addition, in assay [1] (setting [2]), the IC50 is 44.1 µM. In addition, in assay [1], the “MTT Assay IC50(A431/MDBK): ratio” value is 0.99.
`Cc1ccc2c(O)nc(Nc3nc(C)cc(-c4ccccc4)n3)nc2c1` [12693 + TFA]: in the assay with MDBK line (Bos taurus, MDBK), the IC50 worked out at 6.88 µM. For the same compound, at EGFR, the “ICW Avg” value amounted to 57.18, the “ICW 1” value is given as 40.36 and the “ICW 2” value is 74.00. For the same compound, in assay [1] (setting [2]), the IC50 was determined as 9.01 µM. Besides, the “MTT Assay IC50(A431/MDBK): ratio” value in assay [1] turned out to be 0.76.
As to `COc1cccc2c(C)nc(Nc3nc(C)c(C)c(=O)[nH]3)nc12` [12723 + TFA], in the assay on MDBK line, the IC50 is 9.99 µM. For the same compound, at EGFR, the “ICW Avg” value was 66.62, the “ICW 1” value is 67.34 and the “ICW 2” value came to 65.91. Also, the IC50 in assay [1] (A431 cells) worked out at 9.33 µM. For the same compound, the “MTT Assay IC50(A431/MDBK): ratio” value in assay [1] amounted to 1.07.

Source of the values: US20140179681A1, “METHODS AND COMPOSITIONS OF TARGETED DRUG DEVELOPMENT” (priority 2010, published 2014).
